Test results published in US20060194268A1, “Method for measuring spinorphin” (priority 2005, published 2006).
No end group written: not given here.

Tests used:
[1] = biological target: spinorphin rabbit antibody; assay: Competitive enzyme immunoassay, cross reactivity of spinorphin analogues; assay type: binding; details: for IC50: competition with spinorphin immobilized on plate for spinorphin rabbit antibody; for Cross reactivity: ratio of spinorphin relative to IC50; for detection by the method of the present invention (reaction with spinorphin antibody): analogue as competitive compound for immobilized spinorphin
in vitro = details: bovine, cerebrospinal or other body fluid
Procedure: A test was carried out to confirm whether the activity of spinorphin could be retained through the period from the step (B) to the step (E). Spinorphin (1 μg/mL) in TBS was dissolved in bovine cerebrospinal fluid. The cerebrospinal fluid was allowed to stand at room temperature for various time periods. The reaction was stopped, and the amount of spinorphin was measured according to the method mentioned in the above (2).

Substance | detection by the method of the present invention (reaction with spinorphin antibody) [1] | further results
VYPWT |  | IC50 [1]: >10 µg/mL; Cross reactivity [1]: <6.4 × 10^−5
VVYPWT |  | IC50 [1]: 1.6 ± 5 µg/mL; Cross reactivity [1]: 0.0004
VYPW [spinorphin analogue] | could not be detected | 
VVYP [spinorphin analogue] | could not be detected | 
VYP | could not be detected | 
LVVYPWT [Spinorphin, Leu-Val-Val-Tyr-Pro-Trp-Thr] |  | IC50 [1]: 0.00064 ± 0.00061 µg/mL; Cross reactivity [1]: 1; remaining at 1 h, 1 μg/mL (in vitro): 98.8 ± 0.98%
LVVYP [spinorphin analogue] | could not be detected | 
YPWT [hemorphin-4] | could not be detected | 
YPW | could not be detected | 
Pro-Trp-Thr [PWT] | could not be detected | 
LVVYPW [spinorphin analogue] | could not be detected | 
VVYPW [tynorphin] | could not be detected | 
